The numbers were not newly measured in patent US10292931B2, “Stable liquid pharmaceutical composition based on trazodone” (AZIENDE CHIMICHE RIUNITE ANGELINI FRANCESCO A.C.R.A.F. …, priority 2007, dated 2019), which cites them from elsewhere.

Where a name gives a salt, the structure may show the parent alone. Read-outs that look alike come from different tables or passages of the source.

The conditions of series [1]: room temperature.
For series [2] the following is noted: 1% (w/v) aqueous solution.

Regarding `O=c1n(CCCN2CCN(c3cccc(Cl)c3)CC2)nc2ccccn12` [trazodone hydrochloride], the solubility in series [1] (95% ethanol) was 1.6 g/100 ml; in series [1] (benzene), “practically insoluble”; in series [1] (chloroform), 3.6 g/100 ml; in series [1] (ethyl ether), “practically insoluble”; in series [1] (methanol), 2.5 g/100 ml; in series [1] (octanol), “less than 0.1 g/100 ml”. The values for the solubility result in series [1] (olive oil) and in series [1] (water) were “less than 0.1 g/100 ml” and 1.8 g/100 ml, respectively. Moreover, the “pH of aqueous solution” value in series [2] was “approx. 3.90”.
